The record followed here is ChEMBL document CHEMBL1122675, “Topical carbonic anhydrase inhibitors” (J Med Chem, 1984).

The structures appear in SMILES notation. Converted amounts (≈) assume the structure as drawn.

Data set [1] in a line: Solubility at a pH 7.2 phosphate buffer, 37 degrees celsius (N=6). It counts as physicochemical.
A short description of data set [2]: Compound was tested for Octanol / pH 7.2 phosphate buffer distribution coefficient (N=2-3). The format is physicochemical.
Data set [3] in a line: Acid dissociation constant was determined. The format is ADME.
In data set [4] the target is Carbonic anhydrase (Homo sapiens) (UniProt P00918+P43166+P00915+P07451+P23280+O43570+Q9ULX7+Q16790+P22748+Q8N1Q1+Q9Y2D0+P35218).
Description: Compound was tested for relative in vitro carbonic anhydrase activity from human red blood cell.
The nature of data set [5]: Corneal permeability coefficient was determined. It counts as ADME.
Where [6] appears, read: phosphate buffer, read-out: Solubility.

In general, solubility refers to the concentration that dissolves in the medium under given conditions. Usually logD stands for lipophilicity at a set pH, counting ionised and neutral species. The low end stands for a more hydrophilic compound, the high end for a more lipophilic compound. As a reminder, the pKa is the pH at which an ionisable group is half protonated. For `CCOc1ccc2nc(S(=O)(=O)NC(C)=O)sc2c1`, the solubility in data set [1] (setting [6]) was found to be 11500 µg/mL (≈ 38300 µM). This molecule also registered a logD in data set [2] of -1.02. For the same molecule, in data set [3] (read-out: pKa), the pKa worked out at 2.95. In addition, in data set [4], the CAI activity came to 0.0041.

Regarding `NS(=O)(=O)c1nc2ccccc2s1`, in data set [5], the Permeability coefficient is 0.0000362 cm/s. This molecule also showed a solubility in data set [1] (buffer) of 1021 µg/mL (≈ 4760 µM). The molecule also displayed a logD in data set [2] of 1.33. Moreover, the pKa in data set [3] (read-out: pKa) was determined as 7.9.

Regarding `NS(=O)(=O)c1nc2ccc(Cl)cc2s1`, the solubility in data set [1] (setting [6]) came out at 607 µg/mL (≈ 2440 µM). The molecule further gave a logD in data set [2] of 2.1. Moreover, the pKa in data set [3] (read-out: pKa) was 7.72. This molecule showed a CAI activity in data set [4] of 1.23.

Turning to `CCOc1ccc2nc(S(=O)(=O)NC)sc2c1`, the solubility in data set [1] (setting [6]) was 64 µg/mL (≈ 235 µM). In data set [2], this molecule returned a logD of 2.59. In addition, the pKa in data set [3] (read-out: pKa) turned out to be 9.1. This molecule also showed a CAI activity in data set [4] of 0.0064.

Molecule `CCOc1ccc2nc(S(N)(=O)=O)sc2c1` [ETHOXZOLAMIDE] gave a Permeability coefficient in data set [5] of 0.0000439 cm/s. Besides, the solubility in data set [1] (setting [6]) was 60 µg/mL (≈ 232 µM). The logD in data set [2] is 2.06.

Regarding `NS(=O)(=O)c1nc2ccc(O)cc2s1`, the solubility in data set [1] (buffer) came to 1560 µg/mL (≈ 6770 µM). This molecule also returned a logD in data set [2] of 1.12. Moreover, the results for the pKa in data set [3] and in data set [3] (read-out: pKa) were 9.26 and 7.81, respectively.
